Patent US20250214991A1 (Oncopia Therapeutics, Inc. d/b/a/ SK Life Science Labs, priority 2022, published 2025)

What was measured:
[1] = target: CRBN/DDB1 (Homo sapiens (Human), UniProt Q96SW2); assay: IC50 measurements for binding to CRBN/DDB1 (HTRF); settings: His tagged CRBN+DDB, Cy5-labeled Thalidomide probe, one hour
Outline: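 Serially diluted compounds compete with a Cy5-labeled thalidomide tracer (60 nM) for His-tagged CRBN-DDB1 (2 nM), detected via anti-6His Tb cryptate (0.4 nM); buffer HEPES pH 7.5 with TCEP, Brij-35, NaCl, BSA. One-hour room-temperature incubation, HTRF signal read, IC50 by four-parameter curve.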

[2] = target: T1, IKZF2 (Homo sapiens (Human), UniProt Q96SW2+Q9UKS7); assay: In vitro IKZF2 Western Blot Assay in Jurkat cells; type: cell-based; settings: 24 hrs; for inhibition at 0.001 µM: read-out: IKZF2 degradation (%) @ μM 0.001; for inhibition at 0.01 µM: read-out: IKZF2 degradation (%) @ μM 0.01; for inhibition at 0.1 µM: read-out: IKZF2 degradation (%) @ μM 0.1; for inhibition at 1 µM: read-out: IKZF2 degradation (%) @ μM 1; for inhibition at 10 µM: read-out: IKZF2 degradation (%) @ μM 10
T1 sequence (Q9UKS7 whole entry): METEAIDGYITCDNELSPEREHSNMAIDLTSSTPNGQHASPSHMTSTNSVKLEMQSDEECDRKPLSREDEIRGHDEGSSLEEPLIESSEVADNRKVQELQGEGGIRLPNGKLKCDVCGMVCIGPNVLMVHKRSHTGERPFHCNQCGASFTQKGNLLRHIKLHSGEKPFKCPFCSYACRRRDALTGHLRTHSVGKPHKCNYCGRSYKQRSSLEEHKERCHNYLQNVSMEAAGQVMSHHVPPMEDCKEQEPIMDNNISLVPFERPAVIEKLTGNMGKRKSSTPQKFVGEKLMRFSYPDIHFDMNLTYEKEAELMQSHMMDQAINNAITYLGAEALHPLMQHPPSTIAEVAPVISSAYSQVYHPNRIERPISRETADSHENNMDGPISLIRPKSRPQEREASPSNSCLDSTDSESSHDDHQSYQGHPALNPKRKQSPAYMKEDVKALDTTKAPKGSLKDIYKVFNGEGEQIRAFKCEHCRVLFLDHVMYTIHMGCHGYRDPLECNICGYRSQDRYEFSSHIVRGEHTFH
T1 sequence (Q96SW2 whole entry): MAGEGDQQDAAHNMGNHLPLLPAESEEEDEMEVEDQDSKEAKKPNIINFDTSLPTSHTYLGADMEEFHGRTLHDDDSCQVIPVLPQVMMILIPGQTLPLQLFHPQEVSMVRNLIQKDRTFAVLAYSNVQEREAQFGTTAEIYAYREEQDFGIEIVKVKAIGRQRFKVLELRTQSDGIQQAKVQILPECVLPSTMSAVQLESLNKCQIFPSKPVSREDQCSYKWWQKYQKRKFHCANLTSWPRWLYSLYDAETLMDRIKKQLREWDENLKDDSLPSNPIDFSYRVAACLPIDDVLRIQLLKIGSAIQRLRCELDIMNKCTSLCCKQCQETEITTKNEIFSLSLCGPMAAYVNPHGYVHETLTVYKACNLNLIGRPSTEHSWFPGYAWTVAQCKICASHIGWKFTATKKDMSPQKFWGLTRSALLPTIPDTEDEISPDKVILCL
T1 sequence (Q16531 2-1140 partner): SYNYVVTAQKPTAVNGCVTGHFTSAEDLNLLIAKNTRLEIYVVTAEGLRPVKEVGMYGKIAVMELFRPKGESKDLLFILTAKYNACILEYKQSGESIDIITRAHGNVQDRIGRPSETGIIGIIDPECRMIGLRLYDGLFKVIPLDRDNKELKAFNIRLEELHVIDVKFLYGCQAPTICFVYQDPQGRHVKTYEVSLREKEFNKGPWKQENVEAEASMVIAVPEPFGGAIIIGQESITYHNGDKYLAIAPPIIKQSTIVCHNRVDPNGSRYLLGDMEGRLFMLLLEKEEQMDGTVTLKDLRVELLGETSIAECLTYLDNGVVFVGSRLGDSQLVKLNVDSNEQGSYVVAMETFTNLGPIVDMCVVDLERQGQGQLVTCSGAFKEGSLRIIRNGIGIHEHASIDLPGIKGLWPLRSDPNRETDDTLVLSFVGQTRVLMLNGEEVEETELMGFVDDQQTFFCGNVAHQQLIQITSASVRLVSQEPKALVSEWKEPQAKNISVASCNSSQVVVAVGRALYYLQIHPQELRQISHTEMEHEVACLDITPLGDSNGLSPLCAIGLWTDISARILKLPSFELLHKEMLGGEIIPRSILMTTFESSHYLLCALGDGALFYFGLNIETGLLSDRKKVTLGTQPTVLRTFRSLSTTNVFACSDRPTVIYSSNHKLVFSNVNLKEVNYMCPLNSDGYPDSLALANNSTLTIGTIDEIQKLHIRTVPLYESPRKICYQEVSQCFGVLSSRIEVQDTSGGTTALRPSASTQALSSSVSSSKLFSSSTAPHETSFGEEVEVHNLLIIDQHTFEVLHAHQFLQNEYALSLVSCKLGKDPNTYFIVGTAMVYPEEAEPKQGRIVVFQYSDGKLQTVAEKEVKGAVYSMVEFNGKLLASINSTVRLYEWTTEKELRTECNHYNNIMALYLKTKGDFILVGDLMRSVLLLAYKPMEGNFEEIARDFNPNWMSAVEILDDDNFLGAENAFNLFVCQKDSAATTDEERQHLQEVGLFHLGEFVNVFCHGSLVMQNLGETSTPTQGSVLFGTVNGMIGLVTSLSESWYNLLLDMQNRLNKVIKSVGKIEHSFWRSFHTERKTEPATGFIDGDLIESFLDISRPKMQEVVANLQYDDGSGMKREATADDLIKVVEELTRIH
Experimental: In vitro IKZF2 Western Blot Assay Jurkat cells (ATCC, Cat #HB-8065) were cultured in RPMI1640+10% FBS+1% P/S. Cells were treated at desired compound concentrations (0.001, 0.01, 0.1, 1, and 10 μM) and DMSO as vehicle control for 24 hrs. After 24 hr of treatment cells were collected by centrifugation and lysed in RIPA lysis buffer on ice for 10 min. After assessing protein concentration by BCA assay (Pierce), equal amounts of protein for each sample were loaded into 4-12% Bis-Tris gels (Invitrogen), transferred to PVDF membranes and immunoblotted with antibodies against IKZF2 and Actin (Cell Signaling). Membranes were developed on an Odyssey detection system (LI-COR Biosciences) after incubation with IRDye800-labeled goat anti-rabbit IgG and IRDye680-labeled goat anti-mouse IgG (LI-COR) secondary antibodies. Band intensities were quantified using ImageStudio software. Data was further analyzed using XLfit. Percentage of IKZF2 protein degradation: A (>50%); B (30-50%); C(<30%) (Table 2).

[3] = target: IKZF1 (Homo sapiens (Human), UniProt Q13422+Q96SW2); assay: In vitro IKZF1 HiBit Assay (HEK293T Flp-in-HiBiT-IKZF1 stable cell line); type: cell-based; settings: HEK293T Flp-in-HiBiT-IKZF1 stable cell line, 6 hrs incubation; for DC50: read-out: IKZF1 HiBit DC50; for Dmax: HEK-293T, read-out: IKZF1 HiBit Dmax (%)
IKZF1, sequence (Q13422 whole entry): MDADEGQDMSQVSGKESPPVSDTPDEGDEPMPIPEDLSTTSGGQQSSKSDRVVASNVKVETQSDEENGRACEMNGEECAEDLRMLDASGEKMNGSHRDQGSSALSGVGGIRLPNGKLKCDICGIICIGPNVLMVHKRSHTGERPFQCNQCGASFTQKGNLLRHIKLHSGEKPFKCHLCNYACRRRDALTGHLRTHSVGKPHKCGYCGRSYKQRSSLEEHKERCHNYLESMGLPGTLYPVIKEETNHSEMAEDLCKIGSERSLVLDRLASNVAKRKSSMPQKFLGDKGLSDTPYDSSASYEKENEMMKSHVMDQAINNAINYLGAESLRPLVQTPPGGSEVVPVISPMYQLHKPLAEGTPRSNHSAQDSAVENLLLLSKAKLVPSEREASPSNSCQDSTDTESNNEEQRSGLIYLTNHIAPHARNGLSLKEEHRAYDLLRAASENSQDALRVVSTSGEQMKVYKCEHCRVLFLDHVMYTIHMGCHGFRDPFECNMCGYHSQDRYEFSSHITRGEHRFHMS
IKZF1, sequence (Q96SW2 whole entry): as the sequence (Q96SW2 whole entry) above
IKZF1, sequence (Q16531 2-1140 partner): as the sequence (Q16531 2-1140 partner) above
Outline: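 Degradation was measured as loss of luminescence from the HiBiT-IKZF1 tag after 6 h compound treatment, with 0.1% final DMSO, in stable HEK293T Flp-in cells. Values were normalized to DMSO, giving the 50% degradation concentration and the maximal degradation range.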

[4] = target: T1, IKZF2; assay: In vitro IKZF2 HiBit Assay (HEK293T Flp-in-HiBiT cells); type: cell-based; settings: HEK293T Flp-in-HiBiT cells, 6 hrs incubation; for DC50: read-out: IKZF2 HiBit DC50; for Dmax: HEK-293T, read-out: IKZF2 HiBit Dmax (%)
Outline: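 Remaining tagged Helios was read as lytic HiBiT/LgBiT luminescence normalized to DMSO, yielding binned DC50 and Dmax values. Treatment ran 6 h, with compounds at 11 three-fold doses diluted from 1 mM and 0.1% final DMSO. The cells were HEK293T Flp-in with CRISPR knock-in of HiBiT at the IKZF2 N-terminus.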

[5] = target: T1, IKZF2; assay: In vitro IKZF2 FACS Assay in Jurkat cells; type: cell-based; settings: 24 hrs; for DC50: half maximal degradation concentration; for Dmax: maximal degradation percentage
Experimental: In vitro IKZF2 FACS Assay
DC50, A: <1 nM; B: 1-10 nM; C: 10-100 nM; D: 100-1000 nM; E: >1000 nM. Dmax, A: >80%; B: 60-80%; C: 40-60%; D: 20-40%; E: <20%.

CRBN/DDB1, sequence (Q96SW2 whole entry, species assumed): as the sequence (Q96SW2 whole entry) above
CRBN/DDB1, sequence (Q16531 whole entry partner, species assumed): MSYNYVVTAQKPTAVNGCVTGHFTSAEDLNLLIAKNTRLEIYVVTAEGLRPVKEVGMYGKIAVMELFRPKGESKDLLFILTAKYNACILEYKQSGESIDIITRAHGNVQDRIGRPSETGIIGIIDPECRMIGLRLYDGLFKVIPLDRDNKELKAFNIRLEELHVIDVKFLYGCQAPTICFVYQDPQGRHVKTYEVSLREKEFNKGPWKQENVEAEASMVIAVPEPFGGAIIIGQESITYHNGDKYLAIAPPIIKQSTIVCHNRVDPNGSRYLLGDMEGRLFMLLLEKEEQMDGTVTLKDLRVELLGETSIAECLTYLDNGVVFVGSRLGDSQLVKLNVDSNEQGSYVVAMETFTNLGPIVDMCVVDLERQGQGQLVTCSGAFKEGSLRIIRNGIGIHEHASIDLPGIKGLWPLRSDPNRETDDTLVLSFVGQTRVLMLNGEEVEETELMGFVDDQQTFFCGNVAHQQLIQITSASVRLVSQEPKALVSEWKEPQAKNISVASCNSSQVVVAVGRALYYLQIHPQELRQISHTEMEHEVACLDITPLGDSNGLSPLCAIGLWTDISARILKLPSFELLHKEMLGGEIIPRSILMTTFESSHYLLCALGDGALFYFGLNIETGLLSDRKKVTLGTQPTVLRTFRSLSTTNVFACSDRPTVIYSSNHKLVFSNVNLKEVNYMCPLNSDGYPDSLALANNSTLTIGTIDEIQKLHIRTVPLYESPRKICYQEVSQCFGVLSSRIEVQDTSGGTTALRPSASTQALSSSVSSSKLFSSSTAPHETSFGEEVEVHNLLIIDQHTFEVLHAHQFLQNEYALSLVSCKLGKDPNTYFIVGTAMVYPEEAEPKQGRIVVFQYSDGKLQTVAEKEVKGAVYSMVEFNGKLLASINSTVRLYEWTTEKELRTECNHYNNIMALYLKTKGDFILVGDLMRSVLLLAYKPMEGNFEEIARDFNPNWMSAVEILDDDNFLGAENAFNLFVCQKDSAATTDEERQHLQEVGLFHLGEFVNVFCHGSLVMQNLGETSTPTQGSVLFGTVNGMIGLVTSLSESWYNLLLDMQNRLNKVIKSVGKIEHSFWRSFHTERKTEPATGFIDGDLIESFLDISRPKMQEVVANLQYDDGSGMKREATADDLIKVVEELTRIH

Structure (SMILES)	IC50 [1] [µM]	inhibition at 0.001 µM [2] [%]	inhibition at 0.01 µM [2] [%]	inhibition at 0.1 µM [2] [%]	inhibition at 1 µM [2] [%]	inhibition at 10 µM [2] [%]	DC50 [3] [µM]	Dmax [3] [%]	DC50 [4] [µM]	Dmax [4] [%]	DC50 [5] [µM]	Dmax [5] [%]
O=C1CCC(N2Cc3cc(-c4cc(CNCCc5ccccc5Cl)cc5cncn45)ccc3C2=O)C(=O)N1 (stereo not drawn) [Example 21, 3-(5-(7-(((2-chlorophenethyl)amino)methyl)imidazo[1,5-a]pyridin-5-yl)-1-oxoisoindolin-2-yl) piperidine-2,6-dione]	0.1 to 0.5	30 to 50	> 50	> 50	> 50	> 50	–	–	–	–	–	–
O=C1CCC(N2Cc3cc(-c4cc(CN5CCCC5c5ccccc5)cc5cncn45)ccc3C2=O)C(=O)N1 (stereo not drawn) [Example 26, 3-(1-oxo-5-(7-((2-phenylpyrrolidin-1-yl)methyl)imidazo[1,5-a]pyridin-5-yl)isoindolin-2-yl) piperidine-2,6-dione]	0.1 to 0.5	< 30	< 30	30 to 50	30 to 50	30 to 50	–	–	–	–	–	–
O=C1CCC(N2Cc3cc(-c4cc(CN5CCCCC5)cn5ccnc45)ccc3C2=O)C(=O)N1 (stereo not drawn) [Example 33, 3-(1-oxo-5-(6-(piperidin-1-ylmethyl)imidazo[1,2-a]pyridin-8-yl)isoindolin-2-yl) piperidine-2,6-dione]	0.1 to 0.5	< 30	> 50	> 50	> 50	> 50	–	–	–	–	–	–
O=C1CCC(N2Cc3cc(-c4cc(CN5CCC5)cn5ccnc45)ccc3C2=O)C(=O)N1 (stereo not drawn) [Example 34, 3-(5-(6-(azetidin-1-ylmethyl)imidazo[1,2-a]pyridin-8-yl)-1-oxoisoindolin-2-yl) piperidine-2,6-dione]	< 0.1	30 to 50	30 to 50	> 50	> 50	> 50	–	–	–	–	–	–
O=C1CCC(N2Cc3cc(-c4cc(CN5CCC(F)(F)CC5)cn5ccnc45)ccc3C2=O)C(=O)N1 (stereo not drawn) [Example 35, 3-(5-(6-((4,4-difluoropiperidin-1-yl)methyl)imidazo[1,2-a]pyridin-8-yl)-1-oxoisoindolin-2-yl) piperidine-2,6-dione]	0.1 to 0.5	< 30	< 30	< 30	< 30	< 30	–	–	–	–	–	–
CC1(C)CCN(Cc2cc(-c3ccc4c(c3)CN(C3CCC(=O)NC3=O)C4=O)c3nccn3c2)CC1 (stereo not drawn) [Example 36, 3-(5-(6-((4,4-dimethylpiperidin-1-yl)methyl)imidazo[1,2-a]pyridin-8-yl)-1-oxoisoindolin-2-yl) piperidine-2,6-dione]	0.1 to 0.5	30 to 50	30 to 50	< 30	< 30	< 30	–	–	–	–	–	–
O=C1CCC(N2Cc3c(ccc(-c4cc(CN5CCCC5)c5ccn(C6COC6)c5n4)c3Cl)C2=O)C(=O)N1 (stereo not drawn) [Example 228, 3-(4-chloro-5-(1-(oxetan-3-yl)-4-(pyrrolidin-1-ylmethyl)-1H-pyrrolo[2,3-b]pyridin-6-yl)-1-oxoisoindolin-2-yl) piperidine-2,6-dione]	0.1 to 0.5	–	–	–	–	–	> 10	< 20	0.001 to 0.01	60 to 80	0.01 to 0.1	60 to 80
Cn1ccc2c(CN3CCCC3)c(Cl)c(-c3ccc4c(c3)CN(C3CCC(=O)NC3=O)C4=O)nc21 (stereo not drawn) [Example 229, 3-(5-(5-chloro-1-methyl-4-(pyrrolidin-1-ylmethyl)-1H-pyrrolo[2,3-b]pyridin-6-yl)-1-oxoisoindolin-2-yl) piperidine-2,6-dione]	0.1 to 0.5	–	–	–	–	–	> 10	< 20	0.001 to 0.01	60 to 80	0.001 to 0.01	60 to 80
O=C1CCC(N2Cc3c(ccc(-c4cc(CN5CCCC5)c5ccn(C6CS(=O)(=O)C6)c5n4)c3Cl)C2=O)C(=O)N1 (stereo not drawn) [Example 230, 3-(4-chloro-5-(1-(1,1-dioxidothietan-3-yl)-4-(pyrrolidin-1-ylmethyl)-1H-pyrrolo[2,3-b]pyridin-6-yl)-1-oxoisoindolin-2-yl) piperidine-2,6-dione]	0.1 to 0.5	–	–	–	–	–	> 10	< 20	0.001 to 0.01	60 to 80	0.001 to 0.01	> 80
CC(C)Oc1ccnc2c(CN3CCCC3)cc(-c3ccc4c(c3)CN(C3CCC(=O)NC3=O)C4=O)nc12 (stereo not drawn) [Example 232, 3-(5-(8-isopropoxy-4-(pyrrolidin-1-ylmethyl)-1,5-naphthyridin-2-yl)-1-oxoisoindolin-2-yl) piperidine-2,6-dione]	0.5 to 1	–	–	–	–	–	> 10	< 20	0.001 to 0.01	60 to 80	0.01 to 0.1	60 to 80
CC(C)Nc1ccnc2c(CN3CCCC3)cc(-c3ccc4c(c3)CN(C3CCC(=O)NC3=O)C4=O)nc12 (stereo not drawn) [Example 236, 3-(5-(8-(isopropylamino)-4-(pyrrolidin-1-ylmethyl)-1,5-naphthyridin-2-yl)-1-oxoisoindolin-2-yl) piperidine-2,6-dione]	1 to 5	–	–	–	–	–	> 10	< 20	0.01 to 0.1	20 to 40	> 1	< 20
CN(C)c1ccnc2c(CN3CCCC3)cc(-c3ccc4c(c3)CN(C3CCC(=O)NC3=O)C4=O)nc12 (stereo not drawn) [Example 237, 3-(5-(8-(dimethylamino)-4-(pyrrolidin-1-ylmethyl)-1,5-naphthyridin-2-yl)-1-oxoisoindolin-2-yl) piperidine-2,6-dione]	1 to 5	–	–	–	–	–	0.001 to 0.01	20 to 40	0.01 to 0.1	60 to 80	0.01 to 0.1	40 to 60
O=C1CCC(N2Cc3cc(-c4cc(CN5CCCC5)c5nccc(OC6CCC6)c5n4)ccc3C2=O)C(=O)N1 (stereo not drawn) [Example 239, 3-(5-(8-cyclobutoxy-4-(pyrrolidin-1-ylmethyl)-1,5-naphthyridin-2-yl)-1-oxoisoindolin-2-yl) piperidine-2,6-dione]	1 to 5	–	–	–	–	–	> 10	< 20	0.001 to 0.01	60 to 80	0.01 to 0.1	60 to 80
O=C1CCC(N2Cc3cc(-c4cc(CN5CCCC5)c5[nH]ncc5n4)ccc3C2=O)C(=O)N1 (stereo not drawn) [Example 307, 3-(1-oxo-5-(7-(pyrrolidin-1-ylmethyl)-1H-pyrazolo[4,3-b]pyridin-5-yl)isoindolin-2-yl) piperidine-2,6-dione]	0.1 to 0.5	–	–	–	–	–	1 to 10	20 to 40	0.001 to 0.01	> 80	0.001 to 0.01	> 80
Cn1cc2nc(-c3ccc4c(c3)CN(C3CCC(=O)NC3=O)C4=O)cc(CN3CCCC3)c2n1 (stereo not drawn) [Example 314, 3-(5-(2-methyl-7-(pyrrolidin-1-ylmethyl)-2H-pyrazolo[4,3-b]pyridin-5-yl)-1-oxoisoindolin-2-yl) piperidine-2,6-dione]	0.1 to 0.5	–	–	–	–	–	0.01 to 0.1	20 to 40	0.001 to 0.01	> 80	0.001 to 0.01	> 80
